Laboratory results reported in article PMC6792352, “Limited Chemical Structural Diversity Found to Modulate Thyroid Hormone Receptor in the Tox21 Chemical Library” (Environmental Health Perspectives, 2019).
Structures can show the parent of a compound that is named as a salt.

Experiment: in vitro
Conditions: rat, gh3-tre-luc cells

| Structure (SMILES) | CC50 at 24 h (AC50 (uM) modified / 1000) [µM] | further results |
| --- | --- | --- |
| COC(=O)NC(=S)Nc1ccccc1NC(=S)NC(=O)OC [Thiophanate-methyl] | > 90 |  |
| O=S(=O)(O)c1cc(I)c(O)c2ncccc12 [Loretin] | > 50 |  |
| O=C1CC[C@@]2(O)[C@H]3Cc4ccc(O)c5c4[C@@]2(CCN3CC2CC2)[C@H]1O5 [Naltrexone] | > 50 |  |
| CCCCC(CC)COC(=O)COc1ccc(Cl)cc1C (stereo not drawn) [MCPA-2-ethylhexyl] | > 90 |  |
| N[C@@H](Cc1c[nH]cn1)C(=O)O [L-Histidine hydrochloride] | > 50 |  |
| CCC(C)(C)C [2,2-Dimethylbutane] | > 100 |  |
| CCCCCCCCCCCC(=O)NCCCN(C)C [N-[3-(Dimethylamino)propyl]dodecanamide] | 18 |  |
| Cc1ccccc1Cl [2-Chlorotoluene] | > 90 |  |
| O=C1CCCCCO1 [Caprolactone] | > 90 |  |
| CCC(CC)C(=O)O [2-Ethylbutyric acid] | > 90 |  |
| CCN(CCO)CCn1c(Cc2ccccc2)nc2c1c(=O)n(C)c(=O)n2C [Bamifylline Hydrochloride] | > 50 |  |
| COc1cc2[nH]c(C)c(CCN3CCN(c4ccccc4)CC3)c2cc1OC [Oxypertine hydrochloride] | 23.2 |  |
| C=CCN1CCc2nc(N)sc2CC1 [Talipexole] | > 50 |  |
| CC12CC3CC(C)(C1)CC(N)(C3)C2 [Memantine] | 38.1 |  |
| COC(=O)Nc1ccc(Cl)c(Cl)c1 [Swep] | > 90 |  |
| CC(C)CCOC(=O)/C=C/c1ccccc1 [3-Methylbutyl cinnamate] | > 90 |  |
| C=COCC1CCC(COC=C)CC1 (stereo not drawn) [1,4-Bis[(ethenyloxy)methyl]cyclohexane] | > 90 |  |
| CCN(CC)C(C)C(=O)c1ccccc1 (stereo not drawn) [Diethylpropion hydrochloride] | > 50 |  |
| CC(=O)O[C@H]1CC[C@@]2(C)C(=CC[C@@H]3[C@@H]2CC[C@]2(C)C(=O)CC[C@@H]32)C1 [Dehydroepiandrosterone acetate] |  | CC50 at 24 h (AC50 (uM) modified / 1000, Tox21_110001=Tox21_110485, viability, 1 nM T3 present, 24 h): > 20 µM; CC50 at 24 h (AC50 (uM) modified / 1000, Tox21_110001=Tox21_200963, viability, 1 nM T3 present, 24 h): > 90 µM |
| COc1c(C)c2c(c(O)c1C/C=C(\C)CCC(=O)O)C(=O)OC2 [Mycophenolic acid] | 1.55 |  |
| O=C1CCCCC1CN1CCCCC1 (stereo not drawn) [Pimeclone] |  | CC50 at 24 h (AC50 (uM) modified / 1000, Tox21_110001=Tox21_111859, viability, 1 nM T3 present, 24 h): > 50 µM |
| CCCCCCCCCCCCCCCCN [Hexadecylamine] | > 50 |  |

| Structure (SMILES) | CC50 at 24 h (AC50 (uM) modified / 1000) [µM] | further results |
| --- | --- | --- |
| CCN1CCCC1CNC(=O)c1cc(S(=O)(=O)CC)ccc1OC (stereo not drawn) [Sultopride hydrochloride] | > 50 |  |
| Cc1ccn2nc(S(=O)(=O)Nc3c(F)cccc3F)nc2n1 [Flumetsulam] | > 90 |  |
| O=c1[nH]c(=O)c2c[nH]nc2[nH]1 [Oxypurinol] | > 90 |  |
| COc1nc(C)nc(Cl)c1N=C1NCCN1 [Moxonidine] | > 20 |  |
| CCCCCCCCCCCCN(CCCCCCCCCCCC)CCCCCCCCCCCC [Tridodecylamine] | > 90 |  |
| OC[C@H]1O[C@@H](O[C@H]2[C@H](O)[C@@H](O)C(O)O[C@@H]2CO)[C@H](O)[C@@H](O)[C@@H]1O (stereo partly drawn) [Cellobiose] | > 50 |  |
| COc1ccc2cc3[n+](cc2c1OC)CCc1cc2c(cc1-3)OCO2 [Berberine chloride] | 88.5 |  |
| c1ccc2c(CCC3CCNCC3)c[nH]c2c1 [Indalpine hydrochloride] | 18.8 |  |
| O=C(O)c1cccc(C(=O)O)c1 [1,3-Benzenedicarboxylic acid] | > 90 |  |
| CC(C)COC(=O)c1ccccc1C(=O)OCC(C)C [Diisobutyl phthalate] | > 90 |  |
| CCC(=O)C1CC(C(C)C)CC=C1C (stereo not drawn) [1-(5-Isopropyl-2-methyl-cyclohex-2-enyl)-propan-1-one] | > 90 |  |
| CCOC(=O)CC#N [Ethyl cyanoacetate] | > 90 |  |
| NS(=O)(=O)c1cc2c(cc1Cl)NCNS2(=O)=O [Hydrochlorothiazide] | > 90 |  |
| c1cc2c3c(c1)ccc1cccc(c13)C2 [4H-Cyclopenta(def)phenanthrene] |  | CC50 at 24 h (AC50 (uM) modified / 1000, Tox21_110001=Tox21_201057, viability, 1 nM T3 present, 24 h): > 90 µM |
| CC1(c2ccccc2)OC(C(=O)O)=CC1=O (stereo not drawn) [Acifran] | > 50 |  |
| Nc1nc(CC(=O)O)cs1 [2-Amino-4-thiazoleacetic acid] | > 90 |  |
| CCCN(CCC)c1c([N+](=O)[O-])cc(C(C)C)cc1[N+](=O)[O-] [Isopropalin] |  | CC50 at 24 h (AC50 (uM) modified / 1000, Tox21_110001=Tox21_202228, viability, 1 nM T3 present, 24 h): 89.1 µM; CC50 at 24 h (AC50 (uM) modified / 1000, Tox21_110001=Tox21_300422, viability, 1 nM T3 present, 24 h): 45.3 µM |
| CCC(C)S (stereo not drawn) [2-Butanethiol] | > 4 |  |
| ClCC(Br)CBr (stereo not drawn) [1,2-Dibromo-3-chloropropane] |  | CC50 at 24 h (AC50 (uM) modified / 1000, Tox21_110001=Tox21_200382, viability, 1 nM T3 present, 24 h): > 90 µM |
| CCCCCCCCS(=O)(=O)Cl [1-Octanesulfonyl chloride] | > 90 |  |
| O=c1[nH]c(=O)n([C@H]2C[C@H](O)[C@@H](CO)O2)cc1I [Idoxuridine] | > 20 |  |
| CO[C@H](C(=O)[C@@H](O)[C@@H](C)O)[C@@H]1Cc2cc3cc(O[C@H]4C[C@@H](O[C@H]5C[C@@H](O)[C@H](O)[C@@H](C)O5)[C@H](O)[C@@H](C)O4)c(C)c(O)c3c(O)c2C(=O)[C@H]1O[C@H]1C[C@@H](O[C@H]2C[C@@H](O[C@H]3C[C@](C)(O)[C@H](O)[C@@H](C)O3)[C@@H](O)[C@@H](C)O2)[C@H](O)[C@@H](C)O1 [Plicamycin] | 0.413 |  |

| Structure (SMILES) | CC50 at 24 h (AC50 (uM) modified / 1000) [µM] | further results |
| --- | --- | --- |
| Oc1ccc(Cl)cc1C1CCCC1 [4-Chloro-2-cyclopentylphenol] | 55.3 |  |
| NC(=O)c1ccccc1 [Benzamide] | > 90 |  |
| CC[N+](CC)(CC)CC [Tetraethylammonium chloride] | > 100 |  |
| CCCCC(C=O)CC (stereo not drawn) [2-Ethylhexanal] | > 90 |  |
| c1cc[n+]2c(c1)-c1cccc[n+]1CC2 [Diquat dibromide monohydrate] | > 50 |  |
| CCn1cc(C(=O)O)c(=O)c2cnc(N3CCCC3)nc21 [Piromidic acid] | > 20 |  |
| CCCCCCOc1ccc(N)cc1 [4-Hexyloxyaniline] | > 90 |  |
| Cc1c(N)c(=O)n(-c2ccccc2)n1C [Ampyrone] | > 20 |  |
| CCCCC1C(=O)N(c2ccccc2)N(c2ccc(O)cc2)C1=O (stereo not drawn) [Oxyphenbutazone] | 3.72 |  |
| CCCC(C)C [2-Methylpentane] | > 90 |  |
| Oc1ccc(Cl)c(Cl)c1 [3,4-Dichlorophenol] |  | CC50 at 24 h (AC50 (uM) modified / 1000, Tox21_110001=Tox21_200675, viability, 1 nM T3 present, 24 h): > 90 µM |
| C[C@@H]1O[C@@H](O[C@@H]2[C@@H](O)[C@H](OCCc3ccc(O)c(O)c3)O[C@H](CO[C@@H]3O[C@H](CO)[C@@H](O)[C@H](O)[C@H]3O)[C@H]2OC(=O)/C=C/c2ccc(O)c(O)c2)[C@H](O)[C@H](O)[C@H]1O [Echinacoside] | > 90 |  |
| COc1ccc2c(c1OC)CN1CCc3cc4c(cc3[C@@H]1C2)OCO4 [Canadine] | > 20 |  |
| OCCOCC#CCOCCO [1,4-Bis(2-hydroxyethoxy)-2-butyne] | > 90 |  |
| CNC(=O)c1c(I)c(C(=O)NCC(=O)Nc2c(I)c(C(=O)O)c(I)c(C(=O)NCCO)c2I)c(I)c(N(C)C(C)=O)c1I [Ioxaglic acid] | > 50 |  |
| O=C(Nc1ccc(S(=O)(=O)N2CCOCC2)cc1)c1cc(Cl)ccc1NS(=O)(=O)c1ccc(Cl)s1 [Ataciguat] | 24 |  |
| C[C@@H]1CN(c2c(F)c(F)c3c(=O)c(C(=O)O)cn(C4CC4)c3c2F)C[C@H](C)N1 [Orbifloxacin] | > 50 |  |
| COc1ccc(OC)c(OC)c1 [1,2,4-Trimethoxybenzene] | > 90 |  |
| CCOC(=O)COC(=O)c1ccccc1C(=O)OCC [Ethyl phthalyl ethyl glycolate] | > 90 |  |
| Cc1c(C)c2c(c(C)c1O)CC[C@@](C)(CCC[C@H](C)CCC[C@H](C)CCCC(C)C)O2 [alpha-Vitamin E] | > 50 |  |
